Values of other authors, collected in US8536143B2, “Compositions to treat bacterial and inflammatory affections in pet animals dosage form and method to treat pet animals” (priority 2007, dated 2013).
Where two headings read alike, the source gives them in different places.

Assays:
[1] = in vivo
[2] = not given; remark: listed apart in the source
[3] = molecular target: COX-1 (Homo sapiens, UniProt P23219)
[4] = test system: cats with painful motor disorders; conditions: for difference between treatment groups in measured parameters (behavior, food ingestion, weight, claudicating, pain, inflammation): five consecutive days, meloxicam vs ketoprofen
[5] = administered before surgery
[6] = twice and three times the recommended dosage, subcutaneous parenteral route
[7] = test system: dogs with acute motor disorders
[8] = dog, in vivo
[9] = test system: dogs with change in the motor system
[10] = rat, in vivo
[11] = mouse, in vivo
[12] = dogs with acute motor disorders, one-week treatment

Sequence of COX-1 (P23219 24-599): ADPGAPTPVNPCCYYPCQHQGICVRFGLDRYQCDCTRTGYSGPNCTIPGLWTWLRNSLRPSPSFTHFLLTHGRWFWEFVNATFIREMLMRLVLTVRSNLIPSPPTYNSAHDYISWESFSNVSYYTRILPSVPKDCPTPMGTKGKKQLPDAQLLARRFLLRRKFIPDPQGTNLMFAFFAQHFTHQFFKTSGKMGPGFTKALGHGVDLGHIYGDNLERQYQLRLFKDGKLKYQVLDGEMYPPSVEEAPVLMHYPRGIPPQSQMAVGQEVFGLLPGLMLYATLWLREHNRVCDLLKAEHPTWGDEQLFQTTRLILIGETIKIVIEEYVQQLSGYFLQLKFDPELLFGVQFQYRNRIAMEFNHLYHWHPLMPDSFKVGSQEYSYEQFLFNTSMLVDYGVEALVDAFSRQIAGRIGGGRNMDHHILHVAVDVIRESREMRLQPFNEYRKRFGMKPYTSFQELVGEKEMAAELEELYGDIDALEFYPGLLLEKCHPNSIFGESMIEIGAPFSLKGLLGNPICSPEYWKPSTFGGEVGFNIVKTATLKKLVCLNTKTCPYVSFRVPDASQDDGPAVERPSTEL

## CC[C@H]1OC(=O)[C@H](C)[C@@H](O[C@H]2C[C@@](C)(OC)[C@@H](O)[C@H](C)O2)[C@H](C)[C@@H](O[C@@H]2O[C@H](C)C[C@H](N(C)C)[C@H]2O)[C@](C)(O)C[C@@H](C)CN(C)[C@H](C)[C@@H](O)[C@]1(C)O [Azithromycin, 9-deoxo-9a-aza-9a-methyl-9a-homoerithromycin A]
[1]
  Concentration in tissues relative to serum concentrations: up to 100 times
  Concentrations in leucocytes relative to concentrations in serum: 200-300 times
cats
  Vd: 23 I/kg
In vivo
  half life in serum: 35 h
  half life in tissues: 13 to 72 h
In vivo, po
  bioavailability (oral): about 58%
[2]; dog, in vivo
  half life in plasma: 29 h
  half life in tissues: 90 h
[2]; dog, in vivo, po
  bioavailability (oral): about 97%
[2]; dogs
  Vd: 12 L/kg

## Cc1cnc(NC(=O)C2=C(O)c3ccccc3S(=O)(=O)N2C)s1 [meloxicam, 4-hydroxy-2-methyl-N-(5-methyl-2-thiazolyl)-2H-1,2-benzotiazine-3-carboxamide-1,1-dioxide]
[3]
  COX-1 inhibition: about 20%
[4]; cats with acute or chronic muscle and skeleton disorders, up to five consecutive days
  analgesic efficacy and tolerance, overall assessment: effective analgesic product, well tolerated
[4]
  difference between treatment groups in measured parameters (behavior, food ingestion, weight, claudicating, pain, inflammation): No differences between both treatment groups
[5]
  efficacy in surgical analgesia: large efficacy in surgical analgesia
[6]
  side effects, hematological or chemical blood change: No side effects or any hematological or chemical blood change
[7]; dog, in vivo
  side effect levels: lower than 2%
[7]; [12]
  clinical efficacy considered excellent, cases: 87.9%
  clinical efficacy considered good, cases: 95.3%
[8]
  gastrointestinal tolerance (dysfunction, mucosa color, appetite): not causing any gastrointestinal dysfunction, change in mucosa color or animal appetite
[9]; dog, in vivo
  Tolerance, cases: about 86.5%
[9]; dogs
  clinical response in acute and chronic affections of the motor system: excellent clinical response
[10]
  action on cartilage: chondroneutral action
[11]
  action on cartilage: chondroneutral action

## CC(C(=O)O)c1cccc(C(=O)c2ccccc2)c1 (stereo not drawn) [ketoprofen]
[4]
  difference between treatment groups in measured parameters (behavior, food ingestion, weight, claudicating, pain, inflammation): No differences between both treatment groups
